Data: patent US20040076974A1, “Liver necrosis predictive genes” (priority 2002, published 2004)
Like-named read-outs stand apart in the source and are kept apart here.

Tested on: Sprague Dawley rats
Details: for Liver Necrosis / Score (histopathology liver necrosis severity score): rat, intraperitoneal; for Liver Necrosis: 72 hours after treatment; for Score (histopathology liver necrosis severity score): 72 hours, 1 = not remarkable, 2 and higher increasing severity
Outline: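 Toxicity calls (necrosis present or absent at 72 h) and histopathology scores were correlated with tissue gene expression from Crl:CD Sprague Dawley rats. Animals, usually 3 treated with compound by i.p. route and 3 given vehicle, were killed at 6, 24 or 72 h and tissues frozen immediately in liquid nitrogen.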

CCC1(c2ccccc2)C(=O)NC(=O)NC1=O [phenobarbital]
Liver Toxicity Necrosis Classification (72 h, dose 20): no | Liver Toxicity Necrosis Classification (72 h, dose 80): no | Liver Toxicity Necrosis Classification (compound-dose group at 72 h, dose 20): no | Liver Toxicity Necrosis Classification (compound-dose group at 72 h, dose 80): no | Liver Toxicity Necrosis Classification (compound-dosegroup at 72 h, dose 20): no | Liver Toxicity Necrosis Classification (compound-dosegroup at 72 h, dose 80): no | Liver Necrosis (dose 20 mg/kg): no | Score (histopathology liver necrosis severity score) (dose 20 mg/kg): 1 | Liver Necrosis (dose 80 mg/kg): no | Score (histopathology liver necrosis severity score) (dose 80 mg/kg): 1
